Data reported in publication PMC3792051, “Polyenylpyrrole Derivatives Inhibit NLRP3 Inflammasome Activation and Inflammatory Mediator Expression by Reducing Reactive Oxygen Species Production and Mitogen-Activated Protein Kinase Activation” (PLoS ONE, 2013).

Experiments:
[1] = test system: LPS-activated RAW 264.7 macrophages; experiment: NO production inhibitory assay (Griess reaction); type: cell-based, murine
Experimental: RAW 264.7 cells seeded in 24-well plates at a density of 5 × 10^5 cells/ml (1 ml) were incubated for 24 h with or without LPS (1 µg/ml) in the absence or presence of the test samples, then NO production was measured indirectly by analysis of nitrite levels using the Griess reaction.
(§1) To investigate the inhibitory effect of compounds 1h, 1i, and 1n on the LPS-induced inflammatory response, NO levels in the supernatants of RAW 264.7 macrophages incubated with DMSO (vehicle) or compound 1h, 1i, or 1n for 30 min before, and during, incubation for 24 h with LPS (1 µg/ml) were measured by the Griess reaction. […] We next investigated their effect on the expression of iNOS, the NO producing enzyme, using Western blots.
(§2) Figure 2 Effect of polyenylpyrrole derivatives on the expression of inflammatory mediators in LPS-stimulated RAW 264.7 macrophages. In (A) and (C), the cells (5 × 10^5/ml; 1 ml) were incubated for 30 min with 2.5-40 µM compound 1h, 1i, or 1n or DMSO (vehicle), then LPS (1 µg/ml) was added and incubation continued for 24 h, then NO (A) or IL-6 or TNF-α (C) in the culture medium was assayed by the Griess reaction or ELISA, respectively. In (B), cells (5 × 10^5/ml; 1 ml) were pretreated for 30 min with 2.5-40 µM compound 1h or DMSO, then LPS (1 µg/ml) was added and incubation continued for 24 h, then expression of iNOS and COX-2 was measured by Western blotting. The fold increase is the intensity of the band of interest divided by that of the actin band normalized to the corresponding value for the 0 LPS/0 inhibitor control.

[2] = test system: LPS-activated RAW 264.7 macrophages; experiment: iNOS and COX-2 expression by Western blot; type: cell-based, murine; conditions: 30 min pretreatment, LPS 24 h
Experimental: Cells were washed twice with ice-cold phosphate-buffered saline (PBS) and lysed on ice for 5 min with lysis buffer (20 mM Tris-HCl, pH 7.5, 150 mM NaCl, 1 mM Na 2EDTA, 1 mM EGTA, 1% Triton X-100, 2.5 mM sodium pyrophosphate, 1 mM beta-glycerophosphate, 1 mM Na 3VO4, 1 µg/ml of leupeptin, 1 mM PMSF, protease inhibitor cocktail). The lysate was then centrifuged at 12,000 x g at 4 °C for 10 min and the pellet discarded. Proteins in the supernatant were separated by SDS-PAGE and electrotransferred to a PVDF membrane (EMD Millipore Corporation), which was then blocked by incubation for 1 h at room temperature in blocking buffer [(5% nonfat milk in PBS containing 0.1% Tween 20 (PBST)], then incubated for 2 h at room temperature with the primary antibody diluted in blocking buffer. After three washes in PBST, the membrane was incubated for 1 h at room temperature with an appropriate HRP-conjugated secondary antibody diluted in blocking buffer and developed using an enhanced chemiluminescence Western blot detection system (EMD Millipore Corporation).
as §1, §2

[3] = test system: LPS-activated RAW 264.7 macrophages; experiment: IL-6 and TNF-α secretion by ELISA; type: cell-based, murine
Experimental: (§3) The effects of the test samples on IL-1β, TNF-α, and IL-6 production were measured by ELISA according to the manufacturer’s instructions. In brief, 50 µl of biotinylated antibody reagent and 50 µl of supernatant were added to a stripwell plate precoated with anti-mouse IL-1β, TNF-α, or IL-6 antibodies, which was then incubated at room temperature for 2 h. After washing the plate three times with washing buffer, 100 µl of diluted streptavidin-HRP concentrate was added to each well and the plate incubated at room temperature for 30 min. The washing process was repeated, then 100 µl of a premixed tetramethylbenzidine substrate solution was added to each well and the plate incubated at room temperature in the dark for 30 min. After addition of 100 µl of stop solution to each well, the absorbance at 450 nm of each well was measured on a microplate reader.
as §1, §2

[4] = test system: NLRP3 inflammasome in LPS+ATP-activated peritoneal macrophages; experiment: NLRP3 inflammasome-mediated IL-1β secretion (ELISA); type: cell-based, mouse; conditions: compound 10-40 µM 30 min before LPS 5.5 h, then ATP 5 mM 30 min
Experimental: as §3, with “The washing process was repeated, then 100 µl of a premixed tetramethylbenzidine substrate solution was added to each well and the plate incubated at room temperature in the dark for 30 min.” left out, “reader. […]” for “reader.”
Figure 4 Effect of compound 1h on NLRP3 inflammasome activation in LPS+ATP-activated J774A.1 macrophages. (A) J774A.1 macrophages (1 × 10^6/ml; 1 ml) or (B) peritoneal macrophages (1 × 10^5/ml; 1 ml) were incubated with 10-40 µM compound 1h or DMSO for 30 min, then LPS (1 µg/ml) was added and incubation continued for 5.5 h, then the cells were stimulated with ATP (5 mM) for an additional 30 min, then IL-1β in the culture medium was measured by ELISA (A, upper panel; B) and levels of active caspase-1 (p10) (A, lower panel) measured by Western blotting. […]

[5] = test system: ATP-activated LPS-primed J774A.1 macrophages; experiment: Intracellular ROS production (DCF fluorescence), ATP-induced; type: cell-based, murine
Experimental: Intracellular ROS production was measured by detecting the fluorescence intensity of the 2’, 7’-dichlorofluorescein, the oxidation product of 2’, 7’-dichlorofluorescein diacetate (Molecular Probes, Eugene, OR). […] In another, J774A.1 macrophages (5 × 10^5/ml; 0.1 ml) were incubated with LPS (1 µg/ml) for 6 h, then vehicle, compound 1h (20 µM), or DPI (25 µM) was added for 30 min. 2’, 7’-dichlorofluorescein diacetate (2 µM) was then added for 30 min before incubation with ATP (5 mM) for the indicated time; while, in another, the order of addition of compound1h/DPI and LPS was reversed. The fluorescence intensity of 2’, 7’-dichlorofluorescein was detected at an excitation wavelength of 485 nm and an emission wavelength of 530 nm on a microplate absorbance reader (Bio-Rad Laboratories, Inc).
In (A), J774A.1 macrophages (1 × 10^6/ml; 1 ml) were incubated with LPS (1 µg/ml) for 6 h, then with compound 1h (20 µM), the NADPH oxidase inhibitor DPI (25 µM), or DMSO (vehicle) for 30 min in the continued presence of LPS, then 2’,7’-dichlorofluorescein diacetate (2 µM) was added for 30 min, followed by ATP (5 mM) for the indicated time, then ROS levels were determined by measuring the mean fluorescence intensity (MFI) of the fluorophore carboxyl-DCF and expressing this value relative to that at time zero. In (B), J774A.1 macrophages (1 × 10^6/ml; 1 ml) were incubated with compound 1h (20 µM), DPI (25 µM), or DMSO (vehicle) for 30 min, then LPS (1 µg/ml) was added for 6 h; the cells were then incubated with 2’,7’-dichlorofluorescein diacetate (2 µM) for 30 min, then with ATP (5 mM) for the indicated time and ROS levels were measured by detection of the fluorescence intensity of the fluorophore carboxyl-DCF and expressed relative to that at time zero.

[6] = RAW 264.7, 2.5-40 µM, LPS 1 µg/ml 24 h

## O=c1cc(O)cc(/C=C/C=C/C=C/C=C/c2[nH]ccc2Cl)o1 [compound 1h]
[1]; 2.5-40 µM, 30 min before and during LPS 1 µg/ml 24 h
  NO production by LPS-activated cells: decreased NO production by LPS-activated cells in a dose-dependent manner
[1]; RAW 264.7 macrophages, LPS 1 µg/ml, 24 h, Griess reaction
  ED50 (inhibition of LPS-induced NO production): 15 ± 2 µM
[1]; compound alone, no LPS (data not shown)
  NO levels produced by non-activated cells: did not alter NO levels produced by non-activated cells
[2]; 0-40 µM
  COX-2 expression: did not affect expression of COX-2
  LPS-induced iNOS expression: reduced LPS-induced iNOS expression
[2]; Western blot
  Concentration at which reduction of LPS-induced iNOS expression is significant: 5 to 40 µM
[3]; [6]
  IL-6 production by LPS-activated cells: significantly decreased IL-6 production by LPS-activated cells in a dose-dependent manner
  TNF-α secretion by LPS-activated cells: only slightly and non-significantly reduced
[3]; RAW 264.7, no LPS (data not shown)
  Background levels of IL-6 and TNF-α in non-stimulated macrophages: none of the three compounds altered background levels of IL-6 and TNF-α
[4]
  IL-1β secretion: inhibited IL-1β secretion by primary peritoneal macrophages
[5]; J774A.1, LPS 6 h, then compound 1h 20 µM or DPI 25 µM 30 min, ATP 5 mM 0-40 min
  ATP-induced ROS production, compound added after LPS priming: slightly reduced ATP-induced ROS production at 40 min
[5]; J774A.1, compound 1h 20 µM or DPI 25 µM 30 min, then LPS 6 h, then ATP 5 mM
  ATP-induced ROS production, compound added 30 min before LPS priming: significantly inhibited ATP-induced ROS production
